The values below come from patent US8198321B2, “Anti-microorganism terpenic composition” (priority 2006, dated 2012).

Assay [1] deals with HIV-1NDK (X4-tropic). Description: Test for inhibition of dendritic cell infection. It counts as cell-based. The source says: (§1) In order to carry out cytotoxicity and infection-inhibiting activity tests, three cell types and two viral strains were used. This involved a laboratory strain HIV-1NDK(X4-tropic) which was amplified by lymphocytes originating from healthy donors, and a primary strain HIV-1Bal (R5-tropic) which was amplified by macrophages.
(§2) As regards the cell types, macrophages and dendritic cells were obtained from peripheral blood mononuclear cells. In addition, lymphocytes were provided.
(§3) As regards the inhibitory activity, the macrophages or the dendritic cells are incubated with viral particles of the abovementioned strains, HIV-1NDK(X4-tropic) or HIV-1Bal (R5-tropic), in the presence and absence of the terpenic compositions. The cells are subsequently washed and then put back in culture and, finally, centrifuged. The supernatants are then recovered and the viral particles are lyzed in order to measure the concentration of a viral protein using the ELISA assay. In this way, the inhibitory activity of the terpenic compositions is evaluated by comparison between the nontreated infected cells and the treated infected cells.
(§4) Furthermore, tests were carried out on the inhibition of dendritic cell infection, since these cells are involved in HIV transmission at the mucosal level.

Assay [2] concerns HIV-1Bal (R5-tropic). As to the kind of experiment: Test for inhibition of dendritic cell infection. It counts as cell-based.
From the text: as §1, §2, §3, §4

Assay [3] has as its system HIV-1NDK (X4-tropic). As to the kind of experiment: Test for inhibition of macrophage infection. Type of assay: cell-based.
From the text: as §1, §2, §3
(§5) Next, the inhibition of the infection of the macrophages was evaluated. Since the latter are potential reservoirs for HIV, it is a question of measuring the ability of the terpenic composition to prevent infection of the macrophages.

The subject of assay [4] is HIV-1Bal (R5-tropic). As to the kind of experiment: Test for inhibition of macrophage infection. Type of assay: cell-based.
From the text: as §1, §2, §3, §5

In assay [5] the test system is HIV-1NDK (X4-tropic). Description: Test for inhibition of transfer from dendritic cells to T lymphocytes. It counts as cell-based. Here is the method:
(§6) In addition, tests for transfer of the virus, from the dendritic cells to autologous T lymphocytes, i.e. T lymphocytes originating from the same stem cells, were carried out.
(§7) For this, dendritic cells are transferred and incubated with each of the terpenic compositions and the virus. Next, after washing, autologous T lymphocytes are added in a ratio of one dendritic cell to five T lymphocytes. The concentration of viral proteins of the abovementioned type is then evaluated by means of the ELISA assay.
(§8) Dendritic cells express, at their surface, an adhesion protein, DC-SIGN, which forms a viral receptor capable of capturing HIV and of facilitating the infection of permissive cells via a “trans-infection” mechanism. This is because the DC-SIGN receptor can interact with the envelope of HIV and hold the virion in an infectious state so as to subsequently transmit it to permissive T lymphocytes in the adjacent lymph nodes.

Assay [6] relates to HIV-1Bal (R5-tropic). The assay is described as above. Type of assay: cell-based. Here is the method:
as §6, §7, §8

The subject of assay [7] is X4 strains. Description: Direct activity on X4 strains (noninfectious / detergent activity). Also on record: species or system HIV-1. Particulars: diluted to 1/100th.
The mark [8] stands for this setting: diluted to 1/2000th, listed as Fourth.
Setting [9] is: diluted to 1/2000th, listed as fourth preparation.
Where [10] appears, read: diluted to 1/200th, listed as Third.
Where [11] appears, read: diluted to 1/200th, listed as third preparation.

As for “zinc cinnamo-camphorate [Fourth preparation]”, the “inhibition of dendritic cell infection, HIV-1NDK (X4-tropic)” value in assay [1] (diluted to 1/2000th) is listed as 0%. Besides, the “inhibition of dendritic cell infection, HIV-1Bal (R5-tropic)” value in assay [2] (diluted to 1/2000th) is 0%. Moreover, the “inhibition of macrophage infection, HIV-1NDK (X4-tropic)” value is more than 90% in assay [3] (setting [8]) and “the same results” in assay [3] (setting [9]). For the same substance, the “inhibition of macrophage infection, HIV-1Bal (R5-tropic)” value is listed as more than 90% in assay [4] (setting [8]) and “the same results” in assay [4] (setting [9]). In assay [5] (diluted to 1/2000th), the “inhibition of transfer from dendritic cells to T lymphocytes, HIV-1NDK (X4-tropic)” value is recorded as 0%. Also, the “inhibition of transfer from dendritic cells to T lymphocytes, HIV-1Bal (R5-tropic)” value in assay [6] (diluted to 1/2000th) is on record as 0%.

Take “zinc aceto-salicylo-borneolate [Fifth preparation]”: in assay [4] (diluted to 50%), the “inhibition of infection of macrophages with strains of the R5-tropic group” value is reported as “more than 50%”.

Take “zinc ascorbo-camphorate [Third preparation]”: the “inhibition of dendritic cell infection, HIV-1NDK (X4-tropic)” value is more than 95% in assay [1] (setting [10]) and “more than 95%” in assay [1] (setting [11]). For the same substance, the entries for the “inhibition of dendritic cell infection, HIV-1Bal (R5-tropic)” value in assay [2] (setting [10]) and in assay [2] (setting [11]) were more than 95% and “more than 95%”, respectively. For the same substance, the “inhibition of macrophage infection, HIV-1NDK (X4-tropic)” value is recorded as more than 95% in assay [3] (setting [10]), “more than 95%” in assay [3] (setting [11]) and “the same results” in assay [3] (diluted to 1/2000th). Moreover, the “inhibition of macrophage infection, HIV-1Bal (R5-tropic)” value in assay [4] (setting [10]) is more than 95%; in assay [4] (setting [11]), “more than 95%”; in assay [4] (diluted to 1/2000th) it was “the same results”. Moreover, the “detergent activity with respect to the X4 strains” value in assay [7] is “has a detergent activity”. For the same substance, the “rendering the X4 strains noninfectious” value in assay [7] is “capable of rendering the X4 strains noninfectious”. The “inhibition of transfer from dendritic cells to T lymphocytes, HIV-1NDK (X4-tropic)” value is listed as more than 95% in assay [5] (setting [10]) and “more than 95%” in assay [5] (setting [11]). Besides, the “inhibition of transfer from dendritic cells to T lymphocytes, HIV-1Bal (R5-tropic)” value in assay [6] (setting [10]) is more than 95%; in assay [6] (setting [11]) it was “more than 95%”; in assay [6] (diluted to 1/2000th) it was “the same results”.
